Source: patent US20180289678A1, “PHARMACEUTICAL COMPOSITION, PHARMACEUTICAL DOSAGE FORM, PROCESS FOR THEIR PREPARATION, METHODS FOR TREATING AND USES THEREOF” (Boehringer Ingelheim International GmbH, priority 2009, published 2018)
Like-named read-outs stand apart in the source and are kept apart here.

Test: Study .5: single dose study in healthy Japanese volunteers, pharmacokinetic parameters
Format: in vivo, human
Settings: Study .5, fasted
Description: 5. Pharmacokinetic Parameters
The pharmacokinetic parameters of pharmaceutical compositions and pharmaceutical dosage forms are assessed in healthy volunteer and patient populations. In the studies shown below, the participants fasted on the day of sampling, unless as otherwise stated (see for example study .3). The active substance in the studies below is the compound (I.9), preferably in the crystalline form (I.9X), and the dose of active ingredient is indicated in mg.
For the quantification of plasma concentrations of the active ingredient, 2.7 mL of blood was collected and transferred into an EDTA (ethylendiaminetetraacetic acid)-anticoagulant blood drawing tube. The EDTA-anticoagulated blood samples were centrifuged immediately after collection. Centrifugation lasted for about 10 minutes (at about 2,000×gf to 4,000×gf) at 4-8° C. or within 30 minutes while stored on ice. Concentrations of active substance in EDTA human plasma samples were quantitated using a HPLC/MS/MS method. The assay method comprised a solid phase supported liquid-liquid extraction of human plasma coupled with HPLC/MS/MS determination of the extracted samples. The HPLC/MS/MS assay was validated for the range of 1.11 to 1110 nM in human plasma.
Study .5: Single dose study in a healthy volunteer population of N=48 (Japanese volunteers). Healthy volunteers were administered tablets as described in Example 11 (section Examples of formulations).
AUC0-inf:area under the concentration-time curve of the analyte in plasma over the time interval from 0 extrapolated to infinity.
Cmax: maximum concentration of the analyte in plasma.
Tmax: time from dosing to maximum concentration.

For `OC[C@H]1O[C@@H](c2ccc(Cl)c(Cc3ccc(O[C@H]4CCOC4)cc3)c2)[C@H](O)[C@@H](O)[C@@H]1O` [Compound (I.9), 1-chloro-4-(β-D-glucopyranos-1-yl)-2-[4-((S)-tetrahydrofuran-3-yloxy)-benzyl]-benzene], the “AUC0-inf Max” value (5 mg single dose) was 1.31 µM·h, the “AUC0-inf Min” value (5 mg single dose) was 1 µM·h and the “AUC0-inf,norm Max” value (5 mg single dose) was 262 nmol·h/L/mg. The “AUC0-inf,norm Median” value (5 mg single dose) was 230 nmol·h/L/mg, the “AUC0-inf,norm Min” value (5 mg single dose) was 200 nmol·h/L/mg and the “AUC0-inf,norm gMean” value (5 mg single dose) was 228 nmol·h/L/mg. For the same compound, the “Cmax,norm Max” value (5 mg single dose) was 46 nmol/L/mg, the “Cmax,norm Median” value (5 mg single dose) was 31 nmol/L/mg and the “Cmax,norm Min” value (5 mg single dose) was 25 nmol/L/mg. The “Cmax,norm gMean” value (5 mg single dose) was 32 nmol/L/mg, the “tmax Min” value (5 mg single dose) was 0.750 h and the Cmax (5 mg single dose, read-out: Cmax Max) was 230 nM. The Cmax (5 mg single dose, read-out: Cmax Min) was 123 nM, the “AUC0-inf Max” value (10 mg single dose) was 3.19 µM·h and the “AUC0-inf Min” value (10 mg single dose) was 2.34 µM·h. The “AUC0-inf,norm Max” value (10 mg single dose) was 319 nmol·h/L/mg, the “AUC0-inf,norm Median” value (10 mg single dose) was 264 nmol·h/L/mg and the “AUC0-inf,norm Min” value (10 mg single dose) was 234 nmol·h/L/mg. The “AUC0-inf,norm gMean” value (10 mg single dose) was 266 nmol·h/L/mg, the “Cmax,norm Max” value (10 mg single dose) was 45 nmol/L/mg and the “Cmax,norm Median” value (10 mg single dose) was 40 nmol/L/mg. For the same compound, the “Cmax,norm Min” value (10 mg single dose) was 24 nmol/L/mg, the “Cmax,norm gMean” value (10 mg single dose) was 37 nmol/L/mg and the “tmax Max” value (10 mg single dose) was 3.00 h. For the same compound, the “tmax Min” value (10 mg single dose) was 1.00 h, the Cmax (10 mg single dose, read-out: Cmax Max) was 454 nM and the Cmax (10 mg single dose, read-out: Cmax Min) was 242 nM. For the same compound, the “AUC0-inf Max” value (25 mg single dose) was 7.15 µM·h, the “AUC0-inf Min” value (25 mg single dose) was 5.04 µM·h and the “AUC0-inf,norm Max” value (25 mg single dose) was 286 nmol·h/L/mg. For the same compound, the “AUC0-inf,norm Median” value (25 mg single dose) was 254 nmol·h/L/mg, the “AUC0-inf,norm Min” value (25 mg single dose) was 202 nmol·h/L/mg and the “AUC0-inf,norm gMean” value (25 mg single dose) was 245 nmol·h/L/mg. The “Cmax,norm Max” value (25 mg single dose) was 32 nmol/L/mg, the “Cmax,norm Median” value (25 mg single dose) was 26 nmol/L/mg and the “Cmax,norm Min” value (25 mg single dose) was 24 nmol/L/mg. For the same compound, the “Cmax,norm gMean” value (25 mg single dose) was 26 nmol/L/mg, the “tmax Max” value (25 mg single dose) was 4.00 h and the “tmax Min” value (25 mg single dose) was 1.00 h. For the same compound, the Cmax (25 mg single dose, read-out: Cmax Max) was 790 nM, the Cmax (25 mg single dose, read-out: Cmax Min) was 605 nM and the AUC(0-inf) (human, plasma, oral, 5 mg, 5 mg single dose, read-out: AUC0-inf Mean) was 1.14 µM·h. It also gave an AUC(0-inf) (human, plasma, oral, 5 mg, 5 mg single dose, read-out: AUC0-inf Median) of 1.15 µM·h, an AUC(0-inf) (human, plasma, oral, 5 mg, 5 mg single dose, read-out: AUC0-inf gMean) of 1.14 µM·h and a Cmax (human, plasma, oral, 5 mg, 5 mg single dose, read-out: Cmax Mean) of 166 nM. For the same compound, the Cmax (human, plasma, oral, 5 mg, 5 mg single dose, read-out: Cmax Median) was 153 nM, the Cmax (human, plasma, oral, 5 mg, 5 mg single dose, read-out: Cmax gMean) was 161 nM and the Tmax (human, plasma, oral, 5 mg, 5 mg single dose, read-out: tmax Mean) was 1.63 h. For the same compound, the Tmax (human, plasma, oral, 5 mg, 5 mg single dose, read-out: tmax Median) was 2 h, the Tmax (human, plasma, oral, 5 mg, 5 mg single dose, read-out: tmax gMean) was 1.51 h and the AUC(0-inf) (human, plasma, oral, 10 mg, 10 mg single dose, read-out: AUC0-inf Mean) was 2.67 µM·h. The AUC(0-inf) (human, plasma, oral, 10 mg, 10 mg single dose, read-out: AUC0-inf Median) was 2.64 µM·h, the AUC(0-inf) (human, plasma, oral, 10 mg, 10 mg single dose, read-out: AUC0-inf gMean) was 2.66 µM·h and the Cmax (human, plasma, oral, 10 mg, 10 mg single dose, read-out: Cmax Mean) was 379 nM. The Cmax (human, plasma, oral, 10 mg, 10 mg single dose, read-out: Cmax Median) was 398 nM, the Cmax (human, plasma, oral, 10 mg, 10 mg single dose, read-out: Cmax gMean) was 372 nM and the Tmax (human, plasma, oral, 10 mg, 10 mg single dose, read-out: tmax Mean) was 1.67 h. The Tmax (human, plasma, oral, 10 mg, 10 mg single dose, read-out: tmax Median) was 1.5 h, the Tmax (human, plasma, oral, 10 mg, 10 mg single dose, read-out: tmax gMean) was 1.54 h and the AUC(0-inf) (human, plasma, oral, 25 mg, 25 mg single dose, read-out: AUC0-inf Mean) was 6.18 µM·h. For the same compound, the AUC(0-inf) (human, plasma, oral, 25 mg, 25 mg single dose, read-out: AUC0-inf Median) was 6.34 µM·h, the AUC(0-inf) (human, plasma, oral, 25 mg, 25 mg single dose, read-out: AUC0-inf gMean) was 6.13 µM·h and the Cmax (human, plasma, oral, 25 mg, 25 mg single dose, read-out: Cmax Mean) was 661 nM. The Cmax (human, plasma, oral, 25 mg, 25 mg single dose, read-out: Cmax Median) was 643 nM, the Cmax (human, plasma, oral, 25 mg, 25 mg single dose, read-out: Cmax gMean) was 658 nM and the Tmax (human, plasma, oral, 25 mg, 25 mg single dose, read-out: tmax Mean) was 2.33 h. It also gave a Tmax (human, plasma, oral, 25 mg, 25 mg single dose, read-out: tmax Median) of 2 h and a Tmax (human, plasma, oral, 25 mg, 25 mg single dose, read-out: tmax gMean) of 2.14 h.
